From ChEMBL document CHEMBL1649295, “Pharmacokinetic-pharmacodynamic modeling of the in vitro activities of oxazolidinone antimicrobial agents against methicillin-resistant Staphylococcus aureus” (Antimicrob Agents Chemother, 2009) come the findings set out here.

Values after ≈ are worked out from the molar mass of the structure shown. Active and inactive are the calls of the source. The rule behind the calls is not given here.

The MIC is the lowest concentration that inhibits growth of the organism. A low value points to inhibition by little substance.

Series [1] concerns Staphylococcus aureus. Description: Antibacterial activity against methicillin-resistant Staphylococcus aureus OC2878 assessed as inhibition of bacterial regrowth at 16 times MIC after 24 hrs by dynamic time kill study. In kind it is functional, organism-based.
For series [2], the system named is Staphylococcus aureus. Kind of series: Antibacterial activity against methicillin-resistant Staphylococcus aureus OC2878 by broth macrodilution method.
The test system of series [3] is Staphylococcus aureus. Description: Antibacterial activity against methicillin-resistant Staphylococcus aureus OC2878 assessed as log reduction in bacterial count at 8 times MIC after 24 hrs by time kill study. It is filed as functional.
For series [4], the system named is Staphylococcus aureus. Kind of series: Antibacterial activity against methicillin-resistant Staphylococcus aureus OC2878 assessed as inhibition of bacterial regrowth at 16 times MIC after 8 hrs by dynamic time kill study. In kind it is functional, organism-based.
Series [5] in a line: Chemical stability of the compound assessed as compound degradation at 16 times MIC after 24 hrs by RP-HPLC analysis. In kind it is physicochemical.

`CC(=O)NC[C@H]1CN(c2ccc(N3Cc4cn(C)nc4C3)c(F)c2)C(=O)O1`: in the series on Staphylococcus aureus [1], the inhibition entry is “Active”. Moreover, in the series on Staphylococcus aureus [2], the MIC turned out to be 0.5 µg/mL (≈ 1.34 µM). For the same molecule, the log10cfu with Staphylococcus aureus [3] was determined as 2.

`CC(=O)NC[C@H]1CN(c2ccc(N3CCOCC3)c(F)c2)C(=O)O1` [LINEZOLID]: in the series with Staphylococcus aureus [4], the inhibition entry is “inactive”. Also, inhibition of growth in the series on Staphylococcus aureus [2] (MIC) required 1 µg/mL (≈ 2.96 µM). The Stability result in series [5] is listed as “Stable”. Moreover, the log10cfu in the series on Staphylococcus aureus [3] came out at 2.
